Holding throughout (assay type): cell-based, human
The subject of one assay is Target C mRNA. Nature of the assay: RT-qPCR splicing assay panel, Target C canonical junction (CJ) mRNA. The settings on record: Homo sapiens. The essentials:
(§1)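 24 h compound exposure of A673 or K562 cells at 37 °C, 10 uM top final concentration, 3-fold steps, DMSO ≤0.25%. Splice-isoform levels determined by qPCR on cDNA from lysates, run at least in duplicate; values expressed as RQ normalized to GAPDH, GUSB or PPIA and DMSO.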
Background: In qPCR the cycle at which signal appears reflects the starting amount.

A further assay has as its system HTT mRNA. Nature of the assay: RT-qPCR splicing assay, HTT canonical (CJ) and alternative (AJ) junction mRNA. The settings on record: Homo sapiens; for AC50: read-out: HTT AJ (AC50, increase in AJ mRNA). The gist of the method: as §1
The subject of the next assay is MYB mRNA. Nature of the assay: RT-qPCR splicing assay, MYB canonical (CJ) and alternative (AJ) junction mRNA. The settings on record: Homo sapiens; for AC50: read-out: MYB AJ (AC50, increase in AJ mRNA). The gist of the method: as §1
The subject of the next assay is SMN2 mRNA. Nature of the assay: RT-qPCR splicing assay panel, SMN2 canonical junction (CJ) mRNA. The settings on record: Homo sapiens. The gist of the method:
as §1

Setting [1] is: canonical junction (CJ) mRNA, RT-qPCR panel, Table 4A, read-out: Target C, decrease in CJ mRNA levels, IC50.
Setting [2] is: 24 h, Table 3A, A673 or K562 cells, 24 h treatment.
Setting [3] is: 24 h, Table 3A, A673 or K562 cells, 24 h treatment, read-out: HTT CJ (IC50, decrease in CJ mRNA).
[4] abbreviates: canonical junction (CJ) mRNA, RT-qPCR panel, Table 4A, read-out: HTT, decrease in CJ mRNA levels, IC50.
Setting [5] is: 24 h, Table 3A, A673 or K562 cells, 24 h treatment, read-out: MYB CJ (IC50, decrease in CJ mRNA).
Setting [6] is: canonical junction (CJ) mRNA, RT-qPCR panel, Table 4A, read-out: MYB, decrease in CJ mRNA levels, IC50.
[7] abbreviates: canonical junction (CJ) mRNA, RT-qPCR panel, Table 4A, read-out: SMN2, decrease in CJ mRNA levels, IC50.
The mark [8] stands for this setting: Table 4B, gene panel, read-out: Target C (IC50, decrease in CJ mRNA levels).
[9] abbreviates: 24 h, Table 3B, A673 or K562 cells, 24 h treatment.
[10] abbreviates: 24 h, Table 3B, A673 or K562 cells, 24 h treatment, read-out: HTT CJ (IC50, decrease in CJ mRNA).
The mark [11] stands for this setting: Table 4B, gene panel, read-out: HTT (IC50, decrease in CJ mRNA levels).
Setting [12] is: 24 h, Table 3B, A673 or K562 cells, 24 h treatment, read-out: MYB CJ (IC50, decrease in CJ mRNA).
Where [13] appears, read: Table 4B, gene panel, read-out: MYB (IC50, decrease in CJ mRNA levels).
[14] abbreviates: Table 4B, gene panel, read-out: SMN2 (IC50, decrease in CJ mRNA levels).

Structures are written as SMILES. Like-named read-outs stand apart in the source and are kept apart here. Bounds are passed on as bounds.

As for `CN(c1ccc(-c2ccc(-c3cn[nH]c3)cc2O)nn1)C1CC(C)(C)NC(C)(C)C1` [Compound 360], the IC50 with Target C mRNA (setting [1]), in the assay with HTT mRNA (setting [3]), in the assay on HTT mRNA (setting [4]), in the assay on MYB mRNA (setting [5]), in the assay with MYB mRNA (setting [6]) and in the assay on SMN2 mRNA (setting [7]) was under 100 nM in each case. Moreover, the AC50 in the assay on HTT mRNA (setting [2]) and in the assay on MYB mRNA (setting [2]) was under 100 nM throughout.
Take `Cc1cnc(-c2cc(O)c(-c3ccc(N4CCC(NC5CCC5)C4)nn3)cc2F)s1` (stereo not drawn) [Compound 367]: the IC50 was over 10000 nM in the assay on Target C mRNA (setting [1]); over 10000 nM with HTT mRNA (setting [3]); over 10000 nM in the assay on HTT mRNA (setting [4]); over 10000 nM with MYB mRNA (setting [5]); over 10000 nM with MYB mRNA (setting [6]); 1000 to 10000 nM with SMN2 mRNA (setting [7]). The half-maximal activity concentration (AC50) in the assay on HTT mRNA (setting [2]) and in the assay with MYB mRNA (setting [2]) was over 10000 nM each time.
With `Oc1cc(-c2cnnc(C3CC3)c2)ccc1-c1ccc(N2CC[C@@H](NC3CCC3)C2)nn1` [Compound 279, 2-{6-[(3R)-3-(cyclobutylamino)pyrrolidin-1-yl]pyridazin-3-yl}-5-(6-cyclopropylpyridazin-4-yl)phenol], the IC50 was over 10000 nM in the assay on Target C mRNA (setting [1]); 1000 to 10000 nM with HTT mRNA (setting [3]); 1000 to 10000 nM in the assay with HTT mRNA (setting [4]); over 10000 nM with MYB mRNA (setting [5]); over 10000 nM with MYB mRNA (setting [6]); 100 to 1000 nM with SMN2 mRNA (setting [7]). Also, the AC50 in the assay on HTT mRNA (setting [2]) and with MYB mRNA (setting [2]) was over 10000 nM in each case.
Turning to `Cc1ncc(-c2cc(O)c(-c3ccc(N4CC[C@@H](NCC5CCC5)C4)nn3)cc2F)s1` [Compound 395], the IC50 was 100 to 1000 nM in the assay on Target C mRNA (setting [1]); under 100 nM in the assay on HTT mRNA (setting [3]); under 100 nM with HTT mRNA (setting [4]); 100 to 1000 nM in the assay with MYB mRNA (setting [5]); 100 to 1000 nM in the assay on MYB mRNA (setting [6]); under 100 nM in the assay with SMN2 mRNA (setting [7]). Moreover, the AC50 in the assay with HTT mRNA (setting [2]) and in the assay on MYB mRNA (setting [2]) was 100 to 1000 nM in each case.
For the compound `Cc1ncc2cc(-c3ccc(N4CCC(NC(C)(C)C)C4)nn3)c(O)cc2n1` (stereo not drawn) [Compound 818], the IC50 with Target C mRNA (setting [8]), in the assay with HTT mRNA (setting [10]), in the assay on HTT mRNA (setting [11]), in the assay with MYB mRNA (setting [12]), with MYB mRNA (setting [13]) and with SMN2 mRNA (setting [14]) was over 10000 nM in each case. Besides, the AC50 in the assay on HTT mRNA (setting [9]) and in the assay on MYB mRNA (setting [9]) was over 10000 nM each time.
Turning to `COc1cc(-c2ccc(-c3ccc(N4CC[C@@H](N(C)C(C)(C)C)C4)nn3)c(O)c2)cnn1` [Compound 336, 2-{6-[(3R)-3-[tert-butyl(methyl)amino]pyrrolidin-1-yl]pyridazin-3-yl}-5-(6-methoxypyridazin-4-yl)phenol], the IC50 in the assay on Target C mRNA (setting [1]), in the assay with HTT mRNA (setting [3]), with HTT mRNA (setting [4]), in the assay on MYB mRNA (setting [5]), in the assay on MYB mRNA (setting [6]) and with SMN2 mRNA (setting [7]) was under 100 nM in each case. For the same compound, the AC50 with HTT mRNA (setting [2]) and in the assay on MYB mRNA (setting [2]) was under 100 nM throughout.
As to `Cc1nc2cc(O)c(-c3ccc(N4CC[C@H](NC(C)(C)C(C)C)C4)nn3)cc2o1` [Compound 875], the IC50 with Target C mRNA (setting [8]) was 100 to 1000 nM; with HTT mRNA (setting [10]), under 100 nM; in the assay on HTT mRNA (setting [11]), under 100 nM; in the assay with MYB mRNA (setting [12]), 100 to 1000 nM; in the assay with MYB mRNA (setting [13]) it was 100 to 1000 nM; in the assay on SMN2 mRNA (setting [14]), under 100 nM. The AC50 in the assay with HTT mRNA (setting [9]) was under 100 nM; in the assay on MYB mRNA (setting [9]) it was 100 to 1000 nM.
In the case of `CN(C1CCC1)[C@@H]1CCN(c2ccc(-c3ccc(-c4cn[nH]c4)cc3O)nn2)C1` [Compound 296, 2-{6-[(3R)-3-[cyclobutyl(methyl)amino]pyrrolidin-1-yl]pyridazin-3-yl}-5-(1H-pyrazol-4-yl)phenol], the 50% inhibitory concentration (IC50) is 100 to 1000 nM in the assay on Target C mRNA (setting [1]); 100 to 1000 nM with HTT mRNA (setting [3]); 100 to 1000 nM in the assay on HTT mRNA (setting [4]); 100 to 1000 nM in the assay on MYB mRNA (setting [5]); 100 to 1000 nM with MYB mRNA (setting [6]); under 100 nM in the assay on SMN2 mRNA (setting [7]). Moreover, the AC50 in the assay on HTT mRNA (setting [2]) and in the assay on MYB mRNA (setting [2]) was 100 to 1000 nM throughout.
As to `COc1cc(-c2ccc(-c3ccc(N4CC[C@@H](NCC5CC5)C4)nn3)c(O)c2)ncn1` [Compound 382, 2-{6-[(3R)-3-[(cyclopropylmethyl)amino]pyrrolidin-1-yl]pyridazin-3-yl}-5-(6-methoxypyrimidin-4-yl)phenol], the concentration for half-maximal inhibition (IC50) is 100 to 1000 nM in the assay on Target C mRNA (setting [1]); under 100 nM with HTT mRNA (setting [3]); under 100 nM in the assay with HTT mRNA (setting [4]); 100 to 1000 nM in the assay with MYB mRNA (setting [5]); 100 to 1000 nM with MYB mRNA (setting [6]); under 100 nM in the assay with SMN2 mRNA (setting [7]). Besides, the AC50 in the assay with HTT mRNA (setting [2]) and with MYB mRNA (setting [2]) was 100 to 1000 nM throughout.

A word on the IC50: it is the concentration at which inhibition is half-maximal. What is called AC50 is the concentration at which the activity in the assay is half-maximal.
